Measurements as given in ChEMBL document CHEMBL3885861, “Open TG-GATES”.

Species: Rattus norvegicus
Assay: Open TG-GATES - Regimen: Single
Type: toxicity, organism-based, Sprague-Dawley
Parameters: regimen Single, gender Male, age 6 weeks
Settings: in vivo, po, route gavage; for APTT / Bas / Eos / Fbg / Hb / Ht / Lym / MCH / MCHC / MCV / Mono / Neu / PT / Plat / RBC / Ret / WBC: tissue Blood; for KIDNEY_L / KIDNEY_R / KIDNEY_TOTAL: tissue Kidney; for LIVER: tissue Liver; for A/G / ALP / ALT / AST / BUN / CRE / Ca / Cl / DBIL / GLC / IP / K / LDH / Na / PL / RALB / TBIL / TC / TG / TP / gamma-GTP: tissue Plasma
[1] = 50 mg/kg, 3 h, dose level Middle
[2] = 50 mg/kg, 6 h, dose level Middle
[3] = 50 mg/kg, 9 h, dose level Middle
[4] = 50 mg/kg, 24 h, dose level Middle
[5] = 150 mg/kg, 3 h, dose level High
[6] = 150 mg/kg, 6 h, dose level High
[7] = 150 mg/kg, 9 h, dose level High
[8] = 150 mg/kg, 24 h, dose level High

## CC(C)C(=O)Nc1ccc([N+](=O)[O-])c(C(F)(F)F)c1 [FLUTAMIDE]
[1]
  TERMINAL_BW: 209.6 g
  APTT: 18.6 s
  Bas: 0%
  Eos: 1%
  Fbg: 216.6 mg/dL
  Hb: 13.4 g/dL
  Ht: 39.1%
  Lym: 73.6%
  MCH: 21.5 pg
  MCHC: 34.2%
  MCV: 63 fL
  Mono: 2.8%
  Neu: 21.4%
  PT: 12.7 s
  Plat: 136.9 x10_4/uL
  RBC: 621 x10_4/ul
  Ret: 7.8%
  WBC: 82.5 x10_2/uL
  KIDNEY_L: 0.9 g
  KIDNEY_R: 0.9 g
  KIDNEY_TOTAL: 1.8 g
  LIVER: 9.6 g
  A/G: 1.7
  ALP: 785.4 IU/L
  ALT: 35.8 IU/L
  AST: 64 IU/L
  BUN: 12 mg/dL
  CRE: 0.4 mg/dL
  Ca: 10.7 mg/dL
  Cl: 103.4 meq/L
  DBIL: 0.1 mg/dL
  GLC: 199.4 mg/dL
  IP: 9.9 mg/dL
  K: 4.1 meq/L
  LDH: 168.4 IU/L
  Na: 140 meq/L
  PL: 158.6 mg/dL
  RALB: 3.5 g/dL
  TBIL: 0.2 mg/dL
  TC: 80.2 mg/dL
  TG: 86.8 mg/dL
  TP: 5.6 g/dL
  gamma-GTP: 1.2 IU/L
[2]
  TERMINAL_BW: 209.1 g
  APTT: 18.9 s
  Bas: 0%
  Eos: 0.8%
  Fbg: 220.4 mg/dL
  Hb: 13.2 g/dL
  Ht: 38.3%
  Lym: 75%
  MCH: 21.8 pg
  MCHC: 34.6%
  MCV: 63 fL
  Mono: 3.4%
  Neu: 20.4%
  PT: 13 s
  Plat: 126.7 x10_4/uL
  RBC: 608.4 x10_4/ul
  Ret: 7.8%
  WBC: 89.5 x10_2/uL
  KIDNEY_L: 1 g
  KIDNEY_R: 0.9 g
  KIDNEY_TOTAL: 1.9 g
  LIVER: 8.9 g
  A/G: 1.6
  ALP: 921.6 IU/L
  ALT: 33.4 IU/L
  AST: 68.2 IU/L
  BUN: 7.6 mg/dL
  CRE: 0.4 mg/dL
  Ca: 10.6 mg/dL
  Cl: 101.6 meq/L
  DBIL: 0.082 mg/dL
  GLC: 196 mg/dL
  IP: 9.9 mg/dL
  K: 3.9 meq/L
  LDH: 129.2 IU/L
  Na: 140 meq/L
  PL: 140.8 mg/dL
  RALB: 3.4 g/dL
  TBIL: 0.1 mg/dL
  TC: 79.6 mg/dL
  TG: 40.2 mg/dL
  TP: 5.5 g/dL
  gamma-GTP: 1.2 IU/L
[3]
  TERMINAL_BW: 207.5 g
  APTT: 18.7 s
  Bas: 0%
  Eos: 1%
  Fbg: 227 mg/dL
  Hb: 13.1 g/dL
  Ht: 38.6%
  Lym: 76.6%
  MCH: 21.9 pg
  MCHC: 34.1%
  MCV: 64.3 fL
  Mono: 3%
  Neu: 18.6%
  PT: 13 s
  Plat: 135.1 x10_4/uL
  RBC: 601.2 x10_4/ul
  Ret: 8.2%
  WBC: 75 x10_2/uL
  KIDNEY_L: 0.9 g
  KIDNEY_R: 0.9 g
  KIDNEY_TOTAL: 1.8 g
  LIVER: 8.6 g
  A/G: 1.7
  ALP: 922.4 IU/L
  ALT: 30.2 IU/L
  AST: 61.2 IU/L
  BUN: 9.8 mg/dL
  CRE: 0.3 mg/dL
  Ca: 10.3 mg/dL
  Cl: 103.8 meq/L
  DBIL: 0.088 mg/dL
  GLC: 207.4 mg/dL
  IP: 9.9 mg/dL
  K: 3.8 meq/L
  LDH: 123.2 IU/L
  Na: 140.6 meq/L
  PL: 153.2 mg/dL
  RALB: 3.4 g/dL
  TBIL: 0.2 mg/dL
  TC: 81.2 mg/dL
  TG: 53.6 mg/dL
  TP: 5.4 g/dL
  gamma-GTP: 1.2 IU/L
[4]
  TERMINAL_BW: 216.8 g
  APTT: 18.2 s
  Bas: 0%
  Eos: 1%
  Fbg: 209.6 mg/dL
  Hb: 13.7 g/dL
  Ht: 40.6%
  Lym: 77.6%
  MCH: 21.6 pg
  MCHC: 33.8%
  MCV: 63.7 fL
  Mono: 3.2%
  Neu: 17%
  PT: 12.9 s
  Plat: 132.9 x10_4/uL
  RBC: 637 x10_4/ul
  Ret: 6.7%
  WBC: 93 x10_2/uL
  KIDNEY_L: 0.9 g
  KIDNEY_R: 0.9 g
  KIDNEY_TOTAL: 1.8 g
  LIVER: 10.5 g
  A/G: 1.5
  ALP: 950.6 IU/L
  ALT: 38.2 IU/L
  AST: 65.8 IU/L
  BUN: 16 mg/dL
  CRE: 0.4 mg/dL
  Ca: 10.5 mg/dL
  Cl: 103.2 meq/L
  DBIL: 0.1 mg/dL
  GLC: 203.4 mg/dL
  IP: 6.8 mg/dL
  K: 3.8 meq/L
  LDH: 145.2 IU/L
  Na: 140.6 meq/L
  PL: 141.2 mg/dL
  RALB: 3.4 g/dL
  TBIL: 0.2 mg/dL
  TC: 80 mg/dL
  TG: 83.4 mg/dL
  TP: 5.7 g/dL
  gamma-GTP: 1 IU/L
[5]
  TERMINAL_BW: 210.6 g
  APTT: 19.7 s
  Bas: 0%
  Eos: 0.8%
  Fbg: 220.4 mg/dL
  Hb: 13.3 g/dL
  Ht: 38.7%
  Lym: 75%
  MCH: 21.5 pg
  MCHC: 34.4%
  MCV: 62.6 fL
  Mono: 3.6%
  Neu: 19.8%
  PT: 13 s
  Plat: 121.6 x10_4/uL
  RBC: 617.2 x10_4/ul
  Ret: 7.5%
  WBC: 89.1 x10_2/uL
  KIDNEY_L: 0.9 g
  KIDNEY_R: 0.9 g
  KIDNEY_TOTAL: 1.8 g
  LIVER: 9.3 g
  A/G: 1.4
  ALP: 936.4 IU/L
  ALT: 35.4 IU/L
  AST: 69.8 IU/L
  BUN: 9.4 mg/dL
  CRE: 0.4 mg/dL
  Ca: 10.6 mg/dL
  Cl: 102.8 meq/L
  DBIL: 0.1 mg/dL
  GLC: 212.8 mg/dL
  IP: 9.6 mg/dL
  K: 3.7 meq/L
  LDH: 158.4 IU/L
  Na: 140.8 meq/L
  PL: 152 mg/dL
  RALB: 3.4 g/dL
  TBIL: 0.2 mg/dL
  TC: 78 mg/dL
  TG: 77.4 mg/dL
  TP: 5.7 g/dL
  gamma-GTP: 1.4 IU/L
[6]
  TERMINAL_BW: 207.7 g
  APTT: 18.6 s
  Bas: 0%
  Eos: 0.6%
  Fbg: 213 mg/dL
  Hb: 13.4 g/dL
  Ht: 38.9%
  Lym: 79.6%
  MCH: 21.3 pg
  MCHC: 34.4%
  MCV: 62.1 fL
  Mono: 1.4%
  Neu: 17.8%
  PT: 12.7 s
  Plat: 127.8 x10_4/uL
  RBC: 626.6 x10_4/ul
  Ret: 7.3%
  WBC: 62.5 x10_2/uL
  KIDNEY_L: 0.9 g
  KIDNEY_R: 0.9 g
  KIDNEY_TOTAL: 1.9 g
  LIVER: 9.2 g
  A/G: 1.6
  ALP: 813 IU/L
  ALT: 32.4 IU/L
  AST: 63.8 IU/L
  BUN: 11.2 mg/dL
  CRE: 0.3 mg/dL
  Ca: 10.8 mg/dL
  Cl: 99.2 meq/L
  DBIL: 0.08 mg/dL
  GLC: 238.4 mg/dL
  IP: 9.7 mg/dL
  K: 3.8 meq/L
  LDH: 132.6 IU/L
  Na: 139.2 meq/L
  PL: 148.6 mg/dL
  RALB: 3.5 g/dL
  TBIL: 0.1 mg/dL
  TC: 84.4 mg/dL
  TG: 33.2 mg/dL
  TP: 5.7 g/dL
  gamma-GTP: 1 IU/L
[7]
  TERMINAL_BW: 207.4 g
  APTT: 19.7 s
  Bas: 0%
  Eos: 0.8%
  Fbg: 223.8 mg/dL
  Hb: 13.1 g/dL
  Ht: 38.5%
  Lym: 77.4%
  MCH: 21.6 pg
  MCHC: 34%
  MCV: 63.5 fL
  Mono: 3.8%
  Neu: 17%
  PT: 12.8 s
  Plat: 127.2 x10_4/uL
  RBC: 605.6 x10_4/ul
  Ret: 7.7%
  WBC: 69.1 x10_2/uL
  KIDNEY_L: 0.9 g
  KIDNEY_R: 0.9 g
  KIDNEY_TOTAL: 1.8 g
  LIVER: 8.7 g
  A/G: 1.6
  ALP: 711.8 IU/L
  ALT: 29.2 IU/L
  AST: 57.6 IU/L
  BUN: 10.2 mg/dL
  CRE: 0.4 mg/dL
  Ca: 10.5 mg/dL
  Cl: 102.8 meq/L
  DBIL: 0.07 mg/dL
  GLC: 220.6 mg/dL
  IP: 9.1 mg/dL
  K: 3.8 meq/L
  LDH: 149.4 IU/L
  Na: 139.8 meq/L
  PL: 165.4 mg/dL
  RALB: 3.4 g/dL
  TBIL: 0.1 mg/dL
  TC: 89.6 mg/dL
  TG: 73 mg/dL
  TP: 5.7 g/dL
  gamma-GTP: 0.8 IU/L
[8]
  TERMINAL_BW: 213.1 g
  APTT: 17.7 s
  Bas: 0%
  Eos: 1%
  Fbg: 218 mg/dL
  Hb: 13.1 g/dL
  Ht: 39.3%
  Lym: 82.4%
  MCH: 21.6 pg
  MCHC: 33.3%
  MCV: 65 fL
  Mono: 2.2%
  Neu: 13.6%
  PT: 12.8 s
  Plat: 129.1 x10_4/uL
  RBC: 605.4 x10_4/ul
  Ret: 6.8%
  WBC: 77.2 x10_2/uL
  KIDNEY_L: 1 g
  KIDNEY_R: 0.9 g
  KIDNEY_TOTAL: 1.9 g
  LIVER: 9.9 g
  A/G: 1.4
  ALP: 990.6 IU/L
  ALT: 32.6 IU/L
  AST: 69.6 IU/L
  BUN: 12.2 mg/dL
  CRE: 0.4 mg/dL
  Ca: 10.5 mg/dL
  Cl: 104.4 meq/L
  DBIL: 0.082 mg/dL
  GLC: 213 mg/dL
  IP: 7.5 mg/dL
  K: 3.8 meq/L
  LDH: 145.4 IU/L
  Na: 141.2 meq/L
  PL: 175.8 mg/dL
  RALB: 3.3 g/dL
  TBIL: 0.1 mg/dL
  TC: 107.4 mg/dL
  TG: 57.4 mg/dL
  TP: 5.7 g/dL
  gamma-GTP: 0.8 IU/L
